This note sets out measurements from US20260008783A1, “MODULATORS OF FSHR AND USES THEREOF” (Celmatix Inc., priority 2022, published 2026).

pIC50: −log10 of the molar value.

For the assay, the target named is T1, Follicle Stimulating Hormone Receptor (FSHR) (Homo sapiens, UniProt P23945).
T1 construct: HA (N); expressed in transfected cells; host or cells: CHO-K1, transient transfection, pHM6 vector (CMV promoter)
T1 sequence (P23945 18-695): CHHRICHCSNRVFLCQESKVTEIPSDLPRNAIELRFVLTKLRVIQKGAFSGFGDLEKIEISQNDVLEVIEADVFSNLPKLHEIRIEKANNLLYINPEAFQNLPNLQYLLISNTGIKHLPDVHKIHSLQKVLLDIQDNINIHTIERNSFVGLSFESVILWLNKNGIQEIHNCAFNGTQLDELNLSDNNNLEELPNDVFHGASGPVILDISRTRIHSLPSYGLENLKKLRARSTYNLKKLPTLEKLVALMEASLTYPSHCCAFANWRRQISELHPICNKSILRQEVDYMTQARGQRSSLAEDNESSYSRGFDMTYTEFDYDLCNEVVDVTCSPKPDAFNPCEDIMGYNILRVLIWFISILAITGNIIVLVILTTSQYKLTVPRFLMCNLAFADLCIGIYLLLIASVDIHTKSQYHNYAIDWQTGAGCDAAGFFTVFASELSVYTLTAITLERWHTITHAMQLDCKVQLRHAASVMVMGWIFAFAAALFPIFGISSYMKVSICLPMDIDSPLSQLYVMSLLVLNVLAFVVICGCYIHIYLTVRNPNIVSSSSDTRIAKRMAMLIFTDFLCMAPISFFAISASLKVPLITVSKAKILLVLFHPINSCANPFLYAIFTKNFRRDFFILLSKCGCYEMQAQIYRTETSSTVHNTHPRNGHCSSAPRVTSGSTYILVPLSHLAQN
In words: HTRF cAMP agonist assay, FSHR, transiently transfected CHO-K1 cells. The assay is classed as cell-based. The following applies: CHO-K1 cells transiently expressing human FSHR, read-out: IC50 FSHR LANCE CAMP. An excerpt:
Example 17. HTRF cAMP Agonist Assay Protocol (for FSHR, TSHR, LHCGR)
Mammalian expression vectors designed to express either Follicle Stimulating Hormone Receptor (FSHR), Thyroid Stimulating Hormone Receptor (TSHR), or Luteinizing Hormone/Choriogonadotropin Receptor (LHCGR), were generated with an HA-tag on the N-terminus. All constructs were expressed under a human cytomegalovirus (CMV) immediate early enhancer and promoter using the pHM6 expression vector. The protein coding region was confirmed by sequence analysis to be in-frame and of the expected sequence, matching the following accession numbers: FSHR NM_000145, TSHR NM_000369, and LHCGR NM_000233.
HTRF cAMP assays were performed using Chinese Hamster Ovary (CHO-K1) cell lines transiently expressing human FSH, TSH, and LHCG receptors. 48 hours before the assay, cells were washed with PBS and then dissociated from tissue culture flasks with 0.25% trypsin. Dissociated cells were quenched in full media (F-12K Medium Corning REF #10-025-CV, 10% Avantor Seradigm FB Essence Cat #10803-034, 1% Penicillin/Streptomycin Cytiva HyClone Cat #SV30010) and then collected by centrifugation at 290×g for 5 min. Cells were resuspended in full media and dispensed into 150 mm cell culture dishes (Nest Scientific Cat #715001), at 2.3×10^6 cells/flask. 7 hours later, cells were transfected using Lipofectamine transfection reagent (Invitrogen Cat #18324020). Briefly, 60 μL of lipofectamine was dispensed into 2 mL of Opti-MEM (Gibco Cat #31985070) and incubated for 5 minutes at room temperature. Then, the mixture was added onto […] of DNA and incubated for another 20 minutes at room temperature. Cells were washed with warm (37° C.) PBS. 17.5 mL of Opti-MEM was dispensed onto the cells, followed by addition of the Opti-MEM/lipofectamine/DNA mixture. Cells were incubated overnight in a 37° C., 5% CO2 cell incubator. 17-19 hours later, Opti-MEM was aspirated off the cells and replaced with full media. Cells were incubated for another 24 hours in a 37° C., 5% CO2 cell incubator.
On the day of the assay, cells were washed with PBS and then dissociated from tissue culture flasks with 0.25% trypsin. Dissociated cells were quenched in full media and then collected by centrifugation at 290×g for 5 min. Cells were resuspended in PBS^+/+ (Corning REF #20-030-CV) to a concentration of 2×10^5 cells/mL. 10 μL/well of cells (2,000 cells/well) were dispensed into 384-well Corning plates (REF #3825), in triplicate. Cells were incubated at room temperature for 2 hours.
Example FSHR Modulator compounds were diluted in assay buffer (PBS^+/+, 0.05% BSA Sigma-Aldrich A3059, 500 μM IBMX Sigma-Aldrich 15879) to 3.5× the final assay concentration. 4 μL of test agonist was added to the cells and incubated for 1 hour at room temperature. 10 μL of cAMP detection reagents (LANCE Ultra cAMP Detection Kit PerkinElmer TRF0264) were dispensed onto the cells and plates were incubated for 2 hours at room temperature (cAMP detection reagents were made according to the PerkinElmer kit protocol). Plates were read on an Envision plate reader following PerkinElmer guidelines.
Raw data for all assays was transmitted directly from plate readers into a database for processing. All assay plates contained both positive and negative control wells to allow for data normalization and scaling. In agonist assays, negative control wells contained assay buffer and positive control wells contained […] positive control (10 nM Follicle Stimulating Hormone Sigma-Aldrich F4021, 50 nM Thyroid Stimulating Hormone Sigma-Aldrich 869006, 50 nM Luteinizing Hormone MyBioSource MBS5308806, for their respective receptors). All control wells contained DMSO at a final assay concentration that matched the test compound wells. […]
Percent control data were analyzed by non-linear regression with a sigmoidal dose response algorithm in the database to yield potency and efficacy data.
On to `COc1cc2c(cc1-c1cncc(C(N)=O)c1)-c1c(c(C(=O)N3CCC4C3CCN4C)nn1-c1cc(Cl)cc(Cl)c1)CC2` (stereo not drawn) [Compound 8-31], for which the pIC50 is 5.75.

On to `COc1cc2c(cc1-c1ccn(C)n1)-c1c(c(C(=O)N3CCOCC3(C)C)nn1-c1cc(Cl)cc(Cl)c1)C2` [Compound 5-05, [1-(3,5-dichlorophenyl)-6-methoxy-7-(1-methylpyrazol-3-yl)-4H-indeno[1,2-c]pyrazol-3-yl]-(3,3-dimethylmorpholin-4-yl)methanone], for which the pIC50 was 6.25.

Regarding `CCCn1nc(C(=O)N2CCOCC2(C)C)c2c1-c1cc(-c3cncc(C(N)=O)c3)c(OC)cc1CC2` [Compound 9-13, 5-[3-(3,3-dimethylmorpholine-4-carbonyl)-7-methoxy-1-propyl-4,5-dihydrobenzo[g]indazol-8-yl]pyridine-3-carboxamide], the pIC50 is 7.03.

Take `COc1cc2c(cc1-c1ccn(C)n1)-c1c(c(C(=O)N3CCOCC3(C)C)nn1-c1cc(Cl)cc(Cl)c1)CC2` [Compound 6-03, [1-(3,5-dichlorophenyl)-7-methoxy-8-(1-methylpyrazol-3-yl)-4,5-dihydrobenzo[g]indazol-3-yl]-(3,3-dimethylmorpholin-4-yl)methanone]: the pIC50 was 6.79.

Regarding `COc1cc2c(cc1-c1cncc(C(N)=O)c1)-c1c(c(C(=O)N3CCN(CC(=O)O)CC3(C)C)nn1-c1cc(Cl)cc(Cl)c1)CC2` [Compound 8-64], the pIC50 is 5.47.

In the case of `COc1cc2c(cc1-c1cncc(C(N)=O)c1)-c1c(c(C(=O)N3CC(=O)NCC3(C)C)nn1-c1cc(Cl)cc(Cl)c1)CC2` [Compound 8-86], the pIC50 was 7.61.

In the case of `COc1cc2c(cc1-c1cncc(C(N)=O)c1)-c1c(c(C(=O)N3CCC4C3CCN4C(=O)OC(C)(C)C)nn1-c1cc(Cl)cc(Cl)c1)CC2` (stereo not drawn) [Compound 8-31A], the pIC50 is 6.84.

For the molecule `COc1cc2c(cc1-c1cncc(C(N)=O)c1)-c1c(c(C(=O)N(C)C(C)(C)C)nn1-c1cc(Cl)cc(Cl)c1)[S+]([O-])C2` (stereo not drawn) [Compound 3-07, N-tert-butyl-8-(5-carbamoyl-3-pyridyl)-1-(3,5-dichlorophenyl)-7-methoxy-N-methyl-4-oxo-5H-isothiochromeno[4,3-c]pyrazole-3-carboxamide], the pIC50 is 5.34.

As to `COc1cc2c(cc1-c1cncc(C(N)=O)c1)-c1c(c(C(=O)N3CCN(C)C(=O)C3(C)C)nn1-c1cc(Cl)cc(Cl)c1)CC2` [Compound 8-69], the pIC50 was 7.09.

As for `COc1cc2c(cc1-c1ccn(C)n1)-c1c(c(C(=O)N(C)C(C)(C)C)nn1-c1cc(Cl)cc(Cl)c1)C2` [Compound 5-06, N-tert-butyl-1-(3,5-dichlorophenyl)-6-methoxy-N-methyl-7-(1-methylpyrazol-3-yl)-4H-indeno[1,2-c]pyrazole-3-carboxamide], the pIC50 is 6.31.

With `COc1cc2c(cc1-c1cncc(C(N)=O)c1)-c1c(c(C(=O)N3CCNC(=O)C34CC4)nn1-c1cc(Cl)cc(Cl)c1)CC2` [Compound 8-89], the pIC50 is 7.72.

Regarding `COc1cc2c(cc1-c1cncc(C(N)=O)c1)-c1c(c(C(=O)N3[C@@H](C)COC[C@@H]3C)nn1-c1cc(Cl)cc(Cl)c1)CC2` [Compound 8-50], the pIC50 was 8.47.

On to `COc1cc2c(cc1-c1cncc(C(N)=O)c1)-c1c(c(C(=O)N(C)C(C)(C)C)nn1-c1cc(Cl)cc(Cl)c1)CC2` [Compound 6-02, N-tert-butyl-8-(5-carbamoyl-3-pyridyl)-1-(3,5-dichlorophenyl)-7-methoxy-N-methyl-4,5-dihydrobenzo[g]indazole-3-carboxamide], for which the pIC50 is 8.07.

As to `O=C(c1nn(-c2ccccn2)c2c1CCc1ccc(-c3cccnc3)cc1-2)N1CCNC(=O)C12CC2` [Compound 8-81], the pIC50 was 5.27.

Turning to `COc1cc2c(cc1-c1cncc(C(N)=O)c1)-c1c(c(C(=O)N3CCNC(=O)C3(C)C)nn1-c1ccsc1)CC2` [Compound 12-23, 5-[3-(2,2-dimethyl-3-oxo-piperazine-1-carbonyl)-7-methoxy-1-(3-thienyl)-4,5-dihydrobenzo[g]indazol-8-yl]pyridine-3-carboxamide], the negative-log IC50 (pIC50) is 7.44.

On to `CC[C@H]1COCCN1C(=O)c1nn(-c2cc(Cl)cc(Cl)c2)c2c1CCc1cc(OC)c(-c3cncc(C(N)=O)c3)cc1-2` [Compound 8-44], for which the pIC50 is 8.69.

On to `COc1cc2c(cc1-c1cncc(C(N)=O)c1)-c1c(c(C(=O)N3CCOCC3(C)C)nn1-c1cccnc1)CC2` [Compound 10-02], for which the pIC50 is 7.40.

Turning to `COc1cc2c(cc1-c1cncc(C(N)=O)c1)-c1c(c(C(=O)N3CCNC(=O)C3(C)C)nn1-c1ccncn1)CC2` [Compound 15-05, 5-(3-(2,2-dimethyl-3-oxopiperazine-1-carbonyl)-7-methoxy-1-(pyrimidin-4-yl)-4,5-dihydro-1H-benzo[g]indazol-8-yl)nicotinamide], the pIC50 was 6.44.

As to `COc1cc2c(cc1-c1cncc(C(N)=O)c1)-c1c(c(C(=O)N3CCNC(=O)C3)nn1-c1cc(Cl)cc(Cl)c1)CC2` [Compound 8-82], the pIC50 is 7.10.

Consider `COc1cc2c(cc1-c1cncc(C(N)=O)c1)-c1c(c(C(=O)N3CCOCC3(C)C)nn1-c1cc(F)cc(F)c1)CC2` [Compound 9-18], for which the pIC50 was 9.21.

Consider `COc1cc2c(cc1-c1cncc(C(N)=O)c1)-c1c(c(C(=O)N3CCCC3(C)C)nn1-c1cc(Cl)cc(Cl)c1)CC2` [Compound 8-14], for which the pIC50 is 8.46.

Regarding `COc1cc2c(cc1-c1cncc(C(N)=O)c1)-c1c(c(C(=O)N3CCN(CCN)CC3(C)C)nn1-c1cc(Cl)cc(Cl)c1)CC2` [Compound 8-66], the pIC50 is 5.55.

As to `COc1ccc2c(c1)CCc1c(C(=O)N3CCOCC3(C)C)nn(-c3cc(Cl)cc(Cl)c3)c1-2` [Compound 9-08A], the pIC50 is 5.61.

For `COc1cc2c(cc1-c1cncc(C(N)=O)c1)-c1c(c(C(=O)N3C4CC3CN(C)C4)nn1-c1cc(Cl)cc(Cl)c1)CC2` [Compound 8-16], the pIC50 was 7.15.

As to `COc1cc2c(cc1-c1cncc(C(N)=O)c1)-c1c(c(C(=O)N3[C@@H](C)CNC(=O)[C@@H]3C)nn1-c1cc(Cl)cc(Cl)c1)CC2` [Compound 8-87], the pIC50 was 8.09.

`CCC1C(=O)NCCN1C(=O)c1nn(-c2ccccn2)c2c1CCc1ccc(-c3cccnc3)cc1-2` (stereo not drawn) [Compound 8-78]: the pIC50 was 5.61.

`COc1cc2c(cc1-c1cncc(C(N)=O)c1)-c1c(c(C(=O)N3[C@H](C)CNC[C@@H]3C)nn1-c1cc(Cl)cc(Cl)c1)S(=O)(=O)C2` [Compound 12-05]: the pIC50 was 7.81.
